What was measured:
human ulcerative colitis = experiment: Double-blind, controlled, randomized clinical trial in ulcerative colitis; format: in vivo; conditions: MED 15 1200 mg/day plus 5-aminosalicylic acid, 60 days, vs 5-ASA plus placebo
Procedure: A double-blind, controlled, randomized study was carried out in patients affected by two simultaneous pathologies: ulcerative colitis and osteoarticolar disease (osteoarthritis, rheumatoid arthritis, extra-articular rheumatism).
20 patients were divided into 2 homogeneous groups of 10 patients each (Group A and Group B):
Group A was treated with 5-aminosalicylic acid 1200 mg/day and placebo
Group B was treated with 5-aminosalicylic acid […] and MED 15 1200 mg/day
The following clinical evaluations were performed at the beginning of the study (T0), T15, T30, and T60 (end of therapy):
1) endoscopic examination of intestinal mucosa
2) annotation of symptomatology referred by the patients.
The severity of these parameters was expressed by a score as follows: […]

TNB-induced colitis = experiment: TNB-induced colitis; format: in vivo, rat; conditions: MED 15 100 mg/Kg per os T=0, +1, +2, +3 days
Procedure: (§1) Male Wistar rats, 180±20g quarantined for at least 5days and fasted for 18 h prior to the beginning of the trial (on a grid to avoid coprophagy) with free access to water.
Colitis was induced in animals by administration of 15 mg TNB (trinitrobenzosulphonic acid) in 0.25 ml of 30% ethanol in the colon lumen and with an 8 cm cannula at T=0.
MED 15 (100 mg/Kg per os in 1% CMC) was administered to:
5 h after the last administration the animals were killed by cervical dislocation, the colon (8 cm distal portion) removed for damage evaluation.
(§2) Considered parameters are:
myeloperoxidase (MPO), neutrophil indicator;
(§3) data were evaluated by Student's t-test

[1] = tested on: rabbit PRP (plasma rich in platelets); experiment: Platelet aggregation on rabbit PRP, agonist arachidonic acid sodium salt; format: cell-based; conditions: Oryctolagus cuniculus
Procedure: (§4) Male New Zealand rabbits, 2000-3000 g [Stefano Morini, S. Polo D'Enza, RE Italy], quarantined for 5 days prior beginning of the trial (anti-piatelet effect). Male Wistar rats, 250±20 g [IFFA CREDO, Italy] randomized, divided into groups of 5 animals each and fasted for 16 h prior to treatment (thromboanemia determination).
(§5) Blood was intracardially collected from rabbits, using as anticoagulant sodium citrate at a final concentration of 0.38% and centrifuged for 15′ at 150 g in order to obtain a plasma rich in platelets (PRP). PRP was used at a concentration of 3.5×10^8 platelet/ml. MED 15 and reference products were incubated with the PRP for 3′ at 37 C° prior to addition of the aggregating agent. Platelet aggregation induced by arachidonic acid, sodium salt [TAC (threshold aggregation concentration): 140 μm] and collagen (TAC: 28 μg/ml) was measured using an aggregometer (Chronolog model 500) according to the Born's method ([…]. Nature 1962; 194: 927-929) and was expressed as inhibition percentage with respect to the agonist mean response.

[2] = tested on: indomethacin-induced small intestine inflammation; experiment: Indomethacin-induced small intestine inflammation; format: in vivo, rat
Procedure: as §1
The animals were treated with indomethacin (7.5 mg/Kg by subcutaneous administration in NaHCO3 5%) at T=0 and T=+1 day.
MED 15 (100 mg/Kg per os in 1% CMC) was administered according to two different treatments:
Scheme no. 1: T=0, +1 and 2 days
Scheme no. 2: T=0, +1, +2, +5, +6, +7 days
24 h after the last administration the animals were killed by cervical dislocation; the small intestine (from the pylorus to the ileocecal valve), removed and opened lengthwise, was washed in physiological solution at pH 7.4 for damage evaluation.
Considered parameters are: […]
myeloperoxidase (MPO), neutrophil indicator; malondialdehyde (MDA), oxidative process indicator. data were evaluated by Student's t-test

TXB2 plasma levels = experiment: TXB2 (thromboxane) determination in rat; format: in vivo; conditions: for TXB2 ng/ml ± S.E. / inhibition at 100 mg/kg: 100 mg/kg per os, blood 3 h after treatment; for TXB2 ng/ml ± S.E.: controls 174.1 ± 42.6; for % inhibition of TXB2 plasma levels: kinetics; for inhibition at 100 mg/kg: po, vs controls
Procedure: as §4
The animals received per OS 100 mg/kg (1.5 ml/rat) MED 15 and (acetyl salicylic acid) suspended in 1% CMC, and controls received the vehicle only. […] Tromboxane content was determined in the serum thus obtained using a RIA kit [Amersham TRK780]. The results obtained can be evaluated with reference to the following tables and figures.

[3] = tested on: rabbit PRP (plasma rich in platelets); experiment: Platelet aggregation on rabbit PRP, agonist collagen; format: cell-based; conditions: Oryctolagus cuniculus
Procedure: as §4, §5

[4] = tested on: acetic acid-induced colitis; experiment: Acetic acid-induced colitis; format: in vivo, rat; conditions: MED 15 100 mg/Kg per os at T-48 h, -24 h, -2 h; acetic acid controls 949±66
Procedure: as §1
Colitis was induced in animals by administration of 5% acetic acid (1.5 ml/rat) in the distal colon lumen with an 8 cm cannula at T=0.
MED 15 (100 mg/Kg per os) was administered at T−48 h, −24 h and −2 h.
24 h after colitis induction, animals were killed by cervical dislocation and the colon removed and washed in physiological solution at pH 7.4, was examined for damage evaluation.
as §2
malondialdehyde (MDA), oxidative process indicator.
as §3

Compound: COc1ccccc1OC(=O)CNC(=O)Cc1ccc(C(=O)c2ccc(C)cc2)n1C [MED 15, 2-metoxyphenyl-1-methyl-5-p-methylbenzoyl-pirrol-2-acetamido acetate]
- effectiveness in ulcerative colitis (mucosal inflammation and symptomatology scores) (human ulcerative colitis): more effective than 5-ASA
- healing time (human ulcerative colitis): dramatically reduced compared to 5-ASA
- colon walls weight, change compared to TNB control (TNB-induced colitis): −28.6%
- myeloperoxidase levels, change compared to TNB control (TNB-induced colitis): −33.1%
- score, change compared to TNB control (TNB-induced colitis): −35.2%
- inhibition at 0.5 µM ([1]; 0.5 μM): 7.7%
- inhibition at 1.25 µM ([1]; 1.25 μM): 100%
- inhibition at 2.5 µM ([1]; 2.5 μM): 100%
- inhibition at 5 µM ([1]; 5.0 μM): 100%
- reduction in the number of ulcers ([2]; scheme no. 1 (acute phase, T=0, +1 and 2 days), MED 15 100 mg/Kg per os, vs indomethacin controls): 44.3%
- score ([2]; scheme no. 1, MED 15 100 mg/Kg per os, indomethacin controls 7.62±1.84): 4.63±2.73
- tissutal levels of MPO ([2]; scheme no. 1, after MED 15 treatment 100 mg/Kg per os): diminution
- decrease of score value ([2]; scheme no. 2 (prolonged), MED 15 100 mg/Kg per os): 58.4%
- decrease in number of ulcers ([2]; scheme no. 2 (prolonged, T=0, +1, +2, +5, +6, +7 days), MED 15 100 mg/Kg per os): 86.1%
- duration of the effect on TXB2 plasma levels (TXB2 plasma levels): 24 h
- TXB2 ng/ml ± S.E. (TXB2 plasma levels): 14.3 ± 1.3 ng/mL
- % inhibition of TXB2 plasma levels (TXB2 plasma levels; 0.75 h): 93.2%
- % inhibition of TXB2 plasma levels (TXB2 plasma levels; 1.5 h): 90.8%
- % inhibition of TXB2 plasma levels (TXB2 plasma levels; 3.0 h): 91.4%
- % inhibition of TXB2 plasma levels (TXB2 plasma levels; 24.0 h): 49.2%
- inhibition at 100 mg/kg (TXB2 plasma levels): 91.8%
- inhibition at 0.05 µM ([3]; 0.05 μM): 0%
- inhibition at 0.1 µM ([3]; 0.10 μM): 34.3%
- inhibition at 0.39 µM ([3]; 0.39 μM): 100%
- malondialdehyde levels [4]: 719 ± 60 nmol/g

Compound: CC(=O)Oc1ccccc1C(=O)O [ASA, acetylsalicylic acid, reference compound]
- inhibition at 25 µM ([1]; 25.0 μM): 0%
- inhibition at 50 µM ([1]; 50.0 μM): 83.3 ± 16.7%
- inhibition at 100 µM ([1]; 100.0 μM): 100%
- TXB2 ng/ml ± S.E. (TXB2 plasma levels): 2.9 ± 1.1 ng/mL
- inhibition at 100 mg/kg (TXB2 plasma levels): 98.3%
- inhibition at 12.5 µM ([3]; 12.5 μM): 18.4 ± 10.5%
- inhibition at 25 µM ([3]; 25.0 μM): 33.7 ± 2.1%
- inhibition at 50 µM ([3]; 50.0 μM): 70.4 ± 14.9%
- inhibition at 100 µM ([3]; 100.0 μM): 100%

Source: patent US6495590B1, “Use of amtolmetin guacyl for the production of anti-inflammatory drugs for intestinal inflammations” (Medosan Ricerca S.r.l., priority 1998, dated 2002)
